From patent US20250179027A1, “CYCLOALKYL OR HETEROCYCLYL SUBSTITUTED HETEROARYL COMPOUND, AND COMPOSITION AND USE THEREOF” (Shenzhen TargetRx, Inc., priority 2022, published 2025)

Experiments:
[1] = biological target: T1, phosphorylated BTK Y223 in NIH/3T3 BTK C481S cells (Homo sapiens, UniProt Q06187, C481S); test: Phosphor-BTK(Y223) assay, NIH/3T3 BTK C481S cells; assay type: cell-based; details: phosphorylated BTK Y223, NIH/3T3 BTK C481S cells; read-out: NIH/3T3 BTK-C481S pBTK IC50
T1 construct: expressed in transfected cells; host or cells: NIH/3T3 (mouse fibroblasts) engineered to express BTK C481S
T1 sequence (Q06187 whole entry C481S): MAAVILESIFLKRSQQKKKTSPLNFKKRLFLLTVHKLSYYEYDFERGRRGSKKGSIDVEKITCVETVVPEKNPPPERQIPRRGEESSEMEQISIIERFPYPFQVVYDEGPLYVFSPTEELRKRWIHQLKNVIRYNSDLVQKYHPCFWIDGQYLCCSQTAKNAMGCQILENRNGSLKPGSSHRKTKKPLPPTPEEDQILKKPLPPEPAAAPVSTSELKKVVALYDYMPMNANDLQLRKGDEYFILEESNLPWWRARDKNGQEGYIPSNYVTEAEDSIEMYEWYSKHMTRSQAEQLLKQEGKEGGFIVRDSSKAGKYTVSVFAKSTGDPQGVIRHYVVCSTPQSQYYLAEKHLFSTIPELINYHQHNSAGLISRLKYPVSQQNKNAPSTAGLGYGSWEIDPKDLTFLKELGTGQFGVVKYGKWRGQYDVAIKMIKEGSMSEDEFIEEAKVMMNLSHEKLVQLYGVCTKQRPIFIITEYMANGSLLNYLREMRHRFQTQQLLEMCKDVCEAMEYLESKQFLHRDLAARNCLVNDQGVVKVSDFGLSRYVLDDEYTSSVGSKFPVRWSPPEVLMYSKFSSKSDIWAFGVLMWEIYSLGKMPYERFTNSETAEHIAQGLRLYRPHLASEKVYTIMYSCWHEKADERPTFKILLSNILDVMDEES
Description: (§1) The purpose of this assay is to simply, quickly and directly detect the endogenous level of BTK in cells. The specific assay steps are as follows: Day 1: NIH/3T3 BTK WT cells (7.5 k/well) and NIH/3T3 BTK C481S cells (10 k/well) were plated in 96-well plates, respectively, and cultured overnight at 37° C. and 5% CO2.
(§2) • 1. A 3-fold final concentration gradient dilution of the compound was prepared, and 50 μL was added to 100 μL of cell culture; 0.5% DMSO was used as a positive control for cell growth. • 2. The plate was incubated at 37° C., 5% CO2 for 0.5 h. • 3. Na3VO4 with a final concentration of 1 mM was added, and incubated at 37° C. and 5% CO2 for 2 hours. • 4. During the incubation, the following reagents were prepared: 1× added lysis buffer: 3 vol ddH2O+1 vol 4× lysis buffer+100× blocking reagent. p-BTK (Y223) cryptate-antibody and p-BTK (Y223) d2-antibody working solutions: 1 volume of each cryopreserved antibody (stored at −20° C.) was added to 19 times volumes of assay buffer (stored at 4° C.). • 5. After the incubation, the medium was removed and 50 μL of 1× added lysis buffer was added; The mixture was centrifuged at 500 rpm for 30 min at room temperature. • 6. The lysate was mixed well and 16 μL was transferred to a 384-well plate; 1× added lysis buffer was used as a blank control. • 7. 4 μL of pre-mixed working solutions of the two antibodies (cryptate Ab:d2 Ab=1:1) were added and the plate was sealed. • 8. The plate was incubated overnight at room temperature.
(§3) Biotek cytation3.0 microplate reader was used to read the plate at 665 nm and 620 nm, and the ratio of 665/620 nm per well was calculated.
(§4) IC50 was calculated using GraphPad Prism 7.0 software.
(§5) The following nonlinear fitting formula was used to obtain the phosphorylated BTK Y223 IC50 (half phosphorylation inhibitory concentration) of the compounds:
(§6) [formula] • X: Compound concentration log value • Y: Inhibition rate (% inhibition)
(§7) The formula for calculating cell phosphorylation inhibition rate (% inhibition rate) was: […]

[2] = biological target: T2, phosphorylated BTK Y223 in NIH/3T3 BTK WT cells (Homo sapiens, UniProt Q06187); test: Phosphor-BTK(Y223) assay, NIH/3T3 BTK WT cells; assay type: cell-based; details: phosphorylated BTK Y223, NIH/3T3 BTK WT cells; read-out: NIH/3T3 BTK-WT pBTK IC50
T2 construct: expressed in transfected cells; host or cells: NIH/3T3 (mouse fibroblasts) engineered to express BTK WT
T2 sequence (Q06187 whole entry): as the sequence (Q06187 whole entry C481S) above, with S481C counted along it
Description: as §1, §2, §3, §4, §5, §6, §7

Structure (SMILES) | IC50 [1] | IC50 [2]
COc1ccc(F)cc1C(=O)NCc1ccc(-c2nc(C3CCCC(O)C3)n3ccnc(N)c23)cc1 (single isomer, unassigned) [Example 21, N-(4-(8-amino-3-(3-hydroxycyclohexanyl)imidazo[1,5-a]pyrazin-1-yl)benzyl)-5-fluoro-2-methoxybenzamide] | 50 to 100 nM | 25 to 50 nM
COc1ccc(F)cc1C(=O)NCc1ccc(-c2nn(C3CCCC(C)(O)C3)c3ncnc(N)c23)cc1 (single isomer, unassigned) [Example 27, N-(4-(4-amino-1-(3-hydroxy-3-methylcyclohexanyl)-1H-pyrazolo[3,4-d]pyrimidin-3-yl)benzyl)-5-fluoro-2-methoxybenzamide] | 25 to 50 nM | ≤ 25 nM
COc1ccc(F)cc1C(=O)NCc1ccc(-c2nn(C3CCC(CO)OC3)c3ncnc(N)c23)cc1 (single isomer, unassigned) [Example 17, N-(4-(4-amino-1-(6-(hydroxymethyl)tetrahydro-2H-pyran-3-yl)-1H-pyrazolo[3,4-d]pyrimidin-3-yl)benzyl)-5-fluoro-2-methoxybenzamide] | 100 to 500 nM | 100 to 500 nM
COc1ccc(F)cc1C(=O)NCc1ccc(-c2nn(C3CCC(CO)OC3)c3ncnc(N)c23)cc1 (single isomer, unassigned) [Example 19, N-(4-(4-amino-1-(6-(hydroxymethyl)tetrahydro-2H-pyran-3-yl)-1H-pyrazolo[3,4-d]pyrimidin-3-yl)benzyl)-5-fluoro-2-methoxybenzamide] | 50 to 100 nM | 25 to 50 nM
COc1ccc(F)cc1C(=O)NCc1ccc(-n2cc(C3CCC(CO)OC3)c3ncnc(N)c32)cc1 (single isomer, unassigned) [Example 52, N-(4-(4-amino-7-(6-(hydroxymethyl)tetrahydro-2H-pyran-3-yl)-5H-pyrrolo[3,2-d]pyrimidin-5-yl)benzyl)-5-fluoro-2-methoxybenzamide] | 100 to 500 nM | 50 to 100 nM
COc1ccc(F)cc1C(=O)NCc1ccc(-n2cc(C3CCC(CO)OC3)c3ncnc(N)c32)cc1 (single isomer, unassigned) [Example 51, N-(4-(4-amino-7-(6-(hydroxymethyl)tetrahydro-2H-pyran-3-yl)-5H-pyrrolo[3,2-d]pyrimidin-5-yl)benzyl)-5-fluoro-2-methoxybenzamide] | 50 to 100 nM | 25 to 50 nM
COc1ccc(F)cc1C(=O)NCc1ccc(-c2nn(C3CCC(CO)OC3)c3c(=O)[nH]nc(N)c23)cc1 (single isomer, unassigned) [Example 47, N-(4-(4-amino-1-(6-(hydroxymethyl)tetrahydro-2H-pyran-3-yl)-7-oxo-6,7-dihydro-1H-pyrazolo[3,4-d]pyridazin-3-yl)benzyl)-5-fluoro-2-methoxybenzamide] | 100 to 500 nM | 100 to 500 nM
COc1ccc(F)cc1C(=O)NCc1ccc(-c2nn([C@H]3CC[C@H](O)CC3)c3c(=O)[nH]nc(N)c23)cc1 [Example 40, trans-N-(4-(4-amino-1-((1R,4R)-4-hydroxycyclohexanyl)-7-oxo-6,7-dihydro-1H-pyrazolo[3,4-d]pyridazin-3-yl)benzyl)-5-fluoro-2-methoxybenzamide] | 50 to 100 nM | 25 to 50 nM
COc1ccc(F)cc1C(=O)NCc1ccc(-c2nn(C3CCC(O)C3)c3c(=O)[nH]nc(N)c23)cc1 (stereo not drawn) [Example 41, N-(4-(4-amino-1-(3-hydroxycyclopentanyl)-7-oxo-6,7-dihydro-1H-pyrazolo[3,4-d]pyridazin-3-yl)benzyl)-5-fluoro-2-methoxybenzamide] | 50 to 100 nM | 25 to 50 nM
COc1ccc(F)cc1C(=O)NCc1ccc(-c2nn(C3CCCC(O)C3)c3c(=O)[nH]nc(N)c23)cc1 (stereo not drawn) [Example 44, N-(4-(4-amino-1-(3-hydroxycyclohexanyl)-7-oxo-6,7-dihydro-1H-pyrazolo[3,4-d]pyridazin-3-yl)benzyl)-5-fluoro-2-methoxybenzamide] | 100 to 500 nM | 50 to 100 nM
COc1ccc(F)cc1C(=O)NCc1ccc(-c2cc(C3CCC(CO)OC3)n3ncnc(N)c23)cc1 (single isomer, unassigned) [Example 61, N-(4-(4-amino-7-(6-(hydroxymethyl)tetrahydro-2H-pyran-3-yl)pyrrolo[2,1-f][1,2,4]triazin-5-yl)benzyl)-5-fluoro-2-methoxybenzamide] | 25 to 50 nM | ≤ 25 nM
COc1ccc(F)cc1C(=O)NCc1ccc(-c2nn(C3CCC(CO)OC3)c3ncnc(N)c23)cc1 (stereo not drawn) [Example 15, N-(4-(4-amino-1-(6-(hydroxymethyl)tetrahydro-2H-pyran-3-yl)-1H-pyrazolo[3,4-d]pyrimidin-3-yl)benzyl)-5-fluoro-2-methoxybenzamide] | 50 to 100 nM | ≤ 25 nM
COc1ccc(F)cc1C(=O)NCc1ccc(-c2nn(C3CCC(CO)OC3)c(N)c2C(N)=O)cc1 (single isomer, unassigned) [Example 13, 5-amino-3-(4-((5-fluoro-2-methoxybenzamido)methyl)phenyl)-1-(6-(hydroxymethyl)tetrahydro-2H-pyran-3-yl)-1H-pyrazole-4-carboxamide] | 100 to 500 nM | 50 to 100 nM
COc1ccc(F)cc1C(=O)NCc1ccc(-c2nn(C3CCCC(C)(O)C3)c3ncnc(N)c23)cc1 (single isomer, unassigned) [Example 25, N-(4-(4-amino-1-(3-hydroxy-3-methylcyclohexanyl)-1H-pyrazolo[3,4-d]pyrimidin-3-yl)benzyl)-5-fluoro-2-methoxybenzamide] | 25 to 50 nM | 25 to 50 nM
COc1ccc(F)cc1C(=O)NCc1ccc(-c2nn(C3CCC(CO)OC3)c3ncnc(N)c23)cc1 (single isomer, unassigned) [Example 16, N-(4-(4-amino-1-(6-(hydroxymethyl)tetrahydro-2H-pyran-3-yl)-1H-pyrazolo[3,4-d]pyrimidin-3-yl)benzyl)-5-fluoro-2-methoxybenzamide] | 100 to 500 nM | 50 to 100 nM
COc1ccc(F)cc1C(=O)NCc1ccc(-c2nn(C3CCCC(C)(O)C3)c3ncnc(N)c23)cc1 (single isomer, unassigned) [Example 26, N-(4-(4-amino-1-(3-hydroxy-3-methylcyclohexanyl)-1H-pyrazolo[3,4-d]pyrimidin-3-yl)benzyl)-5-fluoro-2-methoxybenzamide] | 50 to 100 nM | 25 to 50 nM
COc1ccc(F)cc1C(=O)NCc1ccc(-c2cc(C3CCC(CO)OC3)n3ncnc(N)c23)cc1 (stereo not drawn) [Example 58, N-(4-(4-amino-7-(6-(hydroxymethyl)tetrahydro-2H-pyran-3-yl)pyrrolo[2,1-f][1,2,4]triazin-5-yl)benzyl)-5-fluoro-2-methoxybenzamide] | 25 to 50 nM | ≤ 25 nM
COc1ccc(F)cc1C(=O)NCc1ccc(-c2nn(C3CCC(CO)OC3)c3c(=O)[nH]nc(N)c23)cc1 (stereo not drawn) [Example 43, N-(4-(4-amino-1-(6-(hydroxymethyl)tetrahydro-2H-pyran-3-yl)-7-oxo-6,7-dihydro-1H-pyrazolo[3,4-d]pyridazin-3-yl)benzyl)-5-fluoro-2-methoxybenzamide] | 100 to 500 nM | 100 to 500 nM
COc1ccc(F)cc1C(=O)NCc1ccc(-c2nn([C@@H]3C=C[C@@H](O)C3)c3ncnc(N)c23)cc1 (single isomer, unassigned) [Example 50, trans-N-(4-(4-amino-1-(4-hydroxycyclopent-2-en-1-yl)-1H-pyrazolo[3,4-d]pyrimidin-3-yl)benzyl)-5-fluoro-2-methoxybenzamide] | 25 to 50 nM | ≤ 25 nM
COc1ccc(F)cc1C(=O)NCc1ccc(-c2nn([C@@H]3C=C[C@@H](O)C3)c3ncnc(N)c23)cc1 (single isomer, unassigned) [Example 49, trans-N-(4-(4-amino-1-(4-hydroxycyclopent-2-en-1-yl)-1H-pyrazolo[3,4-d]pyrimidin-3-yl)benzyl)-5-fluoro-2-methoxybenzamide] | 25 to 50 nM | ≤ 25 nM
COc1ccc(F)cc1C(=O)NCc1ccc(-c2nn(C3CCCC(O)C3)c(N)c2C(N)=O)cc1 (stereo not drawn) [Example 1, 5-amino-3-(4-((5-fluoro-2-methoxybenzoylamino)methyl)phenyl)-1-(3-hydroxycyclohexyl)-1H-pyrazole-4-carboxamide] | 100 to 500 nM | 100 to 500 nM
